Assay results reported in patent US12622899B2 (PureTech LYT 100, Inc., priority 2018, dated 2026).
Entries after “also recorded” stand apart in the source; their conditions may differ.

Key:
[1] = tested on: patients with Idiopathic Pulmonary Fibrosis (IPF); assay: IPF trial Part B (open label long-term extension): efficacy, safety, TEAEs; type: in vivo, human
Source text: Part B (long-term extension) will evaluate the tolerability and long-term safety of LYT-100 in patients who complete the Double-blind Treatment Period. Part B has two periods. […] Patients completing Part B Period 1 will continue maintenance treatment in Part B Period 2 until the study ends. Part B Period 2 will continue at least until all patients who enter Part B Period 1 have the opportunity to complete Part B Period 1. Tolerability and safety during both Part B Period 1 and Part B Period 2 will be monitored by regularly scheduled review of adverse events (AEs), patient reported symptoms, concomitant medications, clinical laboratory findings, physical examinations, electrocardiograms (ECGs), and vital signs. Efficacy will be assessed by evaluation of pulmonary function and monitored by spirometry at regularly scheduled clinic visits. A graphical illustration of an embodiment of the trial design is provided as FIG. 24C.
At the start of Part B, all patients received LYT-100 oral tablets. Patients were titrated onto their assigned doses.
The proportion of patients with prior exposure to nintedanib was limited to 50%.
One hundred and seventy (170) patients (greater than 90%) enrolled in the Open Label Extension (Part B) of the study.

[2] = Study LYT-100-2021-103 Part 3 (Example 2): PK of LYT-100 550 mg TID then 824 mg TID; type: in vivo, human
Method: Subjects provided blood samples prior to treatment, i.e., Day −1 or Day 1, for the determination of CYP1A2, CYP2C9, CYP2C19, and CYP2D6 genotype to support exploratory PK analyses. Subjects were required to provide consent for genotyping. Blood samples for PK were collected at specified times, as follows: • Day 1:0 (pre-AM dose) • Day 2: no sampling • Day 3:0 (pre-AM dose), and 1, 2, 3, 4, 6 (pre-mid-day dose), 7, 8, 9, 10, 12 (pre-PM dose), 13, 14, 15, 16, and 17 hours post-AM dose • Day 4:0 (pre-AM dose) • Day 5: no sampling • Day 6:0 (pre-AM dose), and 1, 2, 3, 4, 6 (pre-mid-day dose), 7, 8, 9, 10, 12 (pre-PM dose), 13, 14, 15, 16, and 17 hours post-AM dose • Day 7:0 (same time as Day 6 pre-AM dose, discharge)
Data was obtained for thirty subjects. Eight subjects had all values reported as below level of quantitation (BLQ; assumed to be 6 placebo subjects plus 2 active subjects with Day 1 pre-dose samples only). One additional subject was excluded due to a large number of BLQ samples on both Days 3-4 and 6-7. Accordingly, twenty-one subjects had sufficient PK data available to calculate PK parameters at the lower dose (550 mg TID on Days 3-4). Three subjects only had data for Days 3-4, and therefore had missing PK parameters for the higher dose (824 mg TID on Days 6-7).

[3] = tested on: rat BLM induced lung fibrosis model; assay: Rat bleomycin induced lung fibrosis model, Phase II (efficacy); settings: bleomycin rats, LYT-100 400 mg/kg QD / nintedanib 60 mg/kg BID
Method: For Groups 4, 5, 6, and 7, bleomycin and vehicle dosing were conducted as indicated in Table 28 (0.45 mg/kg, at 1696 IU/mg of Bleomycin or saline on Day 1, 2, 3, 6 and 7).

[4] = Part A LYT-100 → Part B LYT-100 (N = 81)
[5] = Part A Pirfenidone → Part B LYT-100 (N = 39)
[6] = Part A Placebo → Part B LYT-100 (N = 50)

[2H]C([2H])([2H])c1ccc(=O)n(-c2ccccc2)c1 [LYT-100, 5-(methyl-d3)-1-phenylpyridin-2-(1H)-one]
response in Open Label Extension ([1]; IPF Part B, ongoing, LYT-100 825 mg TID (FIG. 49)): durable response
TEAE Abdominal Pain [1, 4]: 2 (2.5) n (%)
TEAE Diarrhea [1, 4]: 2 (2.5) n (%)
TEAE Dyspepsia [1, 4]: 7 (8.6) n (%)
TEAE Nausea [1, 4]: 5 (6.2) n (%)
TEAE SOC Gastrointestinal disorders [1, 4]: 17 (21.0) n (%)
TEAE Vomiting [1, 4]: 2 (2.5) n (%)
TEAE Abdominal Pain [1, 5]: 1 (2.6) n (%)
TEAE Diarrhea [1, 5]: 1 (2.6) n (%)
TEAE Dyspepsia [1, 5]: 0 n (%)
TEAE Nausea [1, 5]: 2 (5.1) n (%)
TEAE SOC Gastrointestinal disorders [1, 5]: 5 (12.8) n (%)
TEAE Vomiting [1, 5]: 0 n (%)
TEAE Abdominal Pain [1, 6]: 2 (4.0) n (%)
TEAE Diarrhea [1, 6]: 2 (4.0) n (%)
TEAE Dyspepsia [1, 6]: 7 (14.0) n (%)
TEAE Nausea [1, 6]: 7 (14.0) n (%)
TEAE SOC Gastrointestinal disorders [1, 6]: 18 (36.0) n (%)
TEAE Vomiting [1, 6]: 3 (6.0) n (%)
TEAE Abdominal Pain ([1]; Part B Subtotal (N = 170)): 5 (2.9) n (%)
TEAE Diarrhea ([1]; Part B Subtotal (N = 170)): 5 (2.9) n (%)
TEAE Dyspepsia ([1]; Part B Subtotal (N = 170)): 14 (8.2) n (%)
TEAE Nausea ([1]; Part B Subtotal (N = 170)): 14 (8.2) n (%)
TEAE SOC Gastrointestinal disorders ([1]; Part B Subtotal (N = 170)): 40 (23.5) n (%)
TEAE Vomiting ([1]; Part B Subtotal (N = 170)): 5 (2.9) n (%)
Cmax, PK Parent ([2]; Healthy Older Part 3, LYT-100 824 mg TID, fed, N=13, mean (SD)): 13.7 (5.1) mcg/mL
AUC, % higher compared to historic pirfenidone PK values ([2]; LYT-100 824 mg TID): approximately 25%
exposure equivalent, % of 801 TID pirfenidone ([2]; LYT-100 825 mg TID): 120-150%
Cmax, % higher than with pirfenidone ([2]; Part 3, LYT-100 824 mg TID): 17%
hydroxyproline content (μg per mg of wet lung) vs bleomycin/vehicle ([3]; Day 8-27): reduced the hydroxyproline content; also recorded: reduced lung hydroxyproline content
lung fibrosis scores (histopathology) vs bleomycin/vehicle ([3]; Day 8-27): did not affect the fibrosis scores
lung sections with fibrosis Score 1 ([3]; Day 8-27): 33%
lung sections with fibrosis Score 2 ([3]; Day 8-27): 36%
mean lung weight vs bleomycin/vehicle ([3]; Day 8-27): did not affect mean lung weight
median lung fibrosis scores vs bleomycin/vehicle ([3]; Day 8-27): reduced median fibrosis scores
total left lung hydroxyproline (μg per left lung) vs bleomycin/vehicle ([3]; Day 8-27): did not affect total hydroxyproline levels
body weight gain ([3]; oral gavage Day 8-27): resumed and at a rate similar to Group 4; also recorded: did not negatively affect body weight developments
